We go through 3 molecules from article PMC7155212 (Journal of Enzyme Inhibition and Medicinal Chemistry, 2020).

The target in one assay is T1, MAO-B (Rattus norvegicus, UniProt P19643).
T1 construct: The crude enzyme was extracted from the liver of 200–250 g of Wistar rats; from tissue; host or cells: liver of Wistar rats (crude enzyme)
T1 sequence (P19643 1-520): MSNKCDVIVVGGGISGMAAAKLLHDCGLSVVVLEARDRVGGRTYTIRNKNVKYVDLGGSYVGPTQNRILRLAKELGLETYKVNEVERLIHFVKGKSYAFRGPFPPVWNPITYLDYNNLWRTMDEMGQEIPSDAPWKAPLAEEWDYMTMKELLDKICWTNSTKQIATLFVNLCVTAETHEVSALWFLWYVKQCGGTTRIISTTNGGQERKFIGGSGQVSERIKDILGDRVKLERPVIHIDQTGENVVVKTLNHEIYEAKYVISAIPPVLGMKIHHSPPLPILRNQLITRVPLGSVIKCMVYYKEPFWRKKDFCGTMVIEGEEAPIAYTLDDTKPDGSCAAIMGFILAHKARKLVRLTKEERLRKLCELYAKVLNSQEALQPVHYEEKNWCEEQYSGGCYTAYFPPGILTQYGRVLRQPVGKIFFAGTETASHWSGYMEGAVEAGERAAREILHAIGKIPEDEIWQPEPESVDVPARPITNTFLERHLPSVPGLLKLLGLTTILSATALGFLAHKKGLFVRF
Nature of the assay: In vitro MAO inhibitory activity (Holt method, crude enzyme from rat liver). It is filed as biochemical, Wistar rat. As to conditions: rat liver crude enzyme, 4-(trifluoromethyl)benzylamine substrate, mean ± SD (n = 3); read-out: IC50 value MAO-B inhibitory activity. The protocol:
The MAO inhibitory activity of the 3-arylbenzofuranone compounds was determined by the method of Holt et al.[17] with slight modifications. The crude enzyme was extracted from the liver of 200–250 g of Wistar rats according to literature methods[18]^,[19]. The crude enzyme protein content was determined by the Bradford method using a Bradford Protein Assay Kit (Beyotime). The assay was performed in 0.2 M potassium phosphate buffer pH 7.6 on 96-well plates in 240 μl total volume. The chromogenic solution containing 1 mM vanillic acid, 0.5 mM 4-aminoantipyrine, and 4 U/ml horseradish peroxidase in 0.2 M potassium phosphate buffer pH 7.6 was mixed anew for each measurement. 40 μL of enzyme solution and 40 μL of sample solution were added to a 96-well plate. The solution was then incubated at 37 °C for 20 min. 120 μL of the 4-(trifluoromethyl) benzylamine solution and 40 μL of the chromogenic solution were added subsequently and incubated at 37 °C for 90 min. The absorbance was measured at 490 nm using a microplate reader, and the inhibition rate of MAO and the IC50 value of each sample were calculated according to the formula. The control group replaced the sample solution with PBS (0.2 M, pH = 7.6), the positive control replaced the sample with the positive drug, and the blank group replaced the substrate with PBS, and each group was measured three times in parallel to average. Monoamine oxidase inhibitory effect (%) = [(AC – AB) – (AS – ASB )]/(AC – AB)×100% where AC is the absorbance of control group; AB is the absorbance of blank group; AS is the absorbance of sample group; ASB is the absorbance of sample blank group.

Assay [1] in a line: In vitro antioxidant activity (DPPH radical scavenging). As to conditions: DPPH free radical scavenging, 30 min at 37 °C, mean ± SD (n = 3). The method, then:
The assay provides an assessment of the antioxidant activity due to free radical scavenging by measuring hydrogen atom (or one electron) donating activity. DPPH is a purple stable free radical that is reduced to a yellow-coloured diphenylpicryl hydrazine by an antioxidant. The spectrophotometric assay was carried out as described by the literature method with a slight modification. 100 μL of a sample solution was added to 100 μL of DPPH solution. Following 30 min of incubation at 37 °C and protection from light, the absorbance at 517 nm was determined using a microplate reader. Each group was measured three times in parallel to average. IC50 values were calculated. The percentage of DPPH radical scavenging rate of the target compound is calculated as follows: DPPH free radical scavenging effect (%)=[A0 – (A1−A2)]/A0×100% where A0 is the absorbance of blank group; A1 is the absorbance of sample group; A2 is the absorbance of sample blank group.
Background: The DPPH test is a chemical assay of radical scavenging.

For another assay, the target named is AChE (Electrophorus electricus, UniProt O42275). Nature of the assay: Kinetic characterisation of AChE inhibition (Lineweaver-Burk). It counts as biochemical. As to conditions: Lineweaver-Burk plot, Figure 1A. The protocol: (§1) To obtain the mechanism of action of 13, reciprocal plots of 1/velocity versus 1/[substrate] were constructed at different concentrations of the substrate […] by using Ellman’s method. Compound 13 was added to the assay solution and preincubated with the enzyme at 37 °C for 5 min, followed by the addition of the substrate. Kinetic characterisation catalysed by enzyme was achieved spectrometrically at 412 nm. A parallel control experiment was carried out without compound 13 in the mixture. Lineweaver–Burk plot was made based on the reaction rate and substrate concentration to determine the type of inhibition of the ChE by the compound.
Sequence of AChE (O42275 24-633): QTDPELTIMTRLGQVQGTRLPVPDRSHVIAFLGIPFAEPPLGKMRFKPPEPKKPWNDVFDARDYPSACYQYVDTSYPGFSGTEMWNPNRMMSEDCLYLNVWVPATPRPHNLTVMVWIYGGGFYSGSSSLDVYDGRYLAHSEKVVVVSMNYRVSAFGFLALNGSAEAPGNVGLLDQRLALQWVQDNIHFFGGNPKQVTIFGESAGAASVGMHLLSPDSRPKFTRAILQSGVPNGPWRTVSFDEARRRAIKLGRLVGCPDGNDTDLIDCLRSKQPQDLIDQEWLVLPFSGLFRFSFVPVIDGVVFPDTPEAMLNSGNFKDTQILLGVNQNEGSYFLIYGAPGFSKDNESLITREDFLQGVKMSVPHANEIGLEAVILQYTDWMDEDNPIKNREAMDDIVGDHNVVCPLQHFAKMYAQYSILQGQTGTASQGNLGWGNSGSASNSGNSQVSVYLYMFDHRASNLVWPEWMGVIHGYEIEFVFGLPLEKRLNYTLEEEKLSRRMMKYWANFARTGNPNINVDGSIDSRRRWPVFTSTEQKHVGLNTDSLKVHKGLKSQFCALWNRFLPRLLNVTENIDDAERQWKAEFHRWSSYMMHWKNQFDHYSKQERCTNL

Another assay concerns the target BuChE (Equus caballus, UniProt P81908). Nature of the assay: Kinetic characterisation of BuChE inhibition (Lineweaver-Burk). It counts as biochemical. As to conditions: Lineweaver-Burk plot, Figure 1B. The method, then: as §1
Another assay deals with AChE from electric eel (Electrophorus electricus, UniProt O42275). Nature of the assay: biochemical. It is filed as biochemical. As to conditions: Ellman method, mean ± SD (n = 3), read-out: IC50 value AChE inhibitory activity. The method, then: (§2) The anticholinesterase activity of the 3-arylbenzofuranone compounds was determined by the method of Ellman et al.[16] with slight modifications. […] Acetylthiocholine iodide and butyrylthiocholine iodide were used as substrates respectively. 5,5′-Dithiobis(2-nitrobenzoic acid) (DTNB) was used as the chromophoric reagent. To a 96-well plate, 120 µL of phosphate buffer solution (0.1 M, pH = 8.0, PBS), 20 µL of DTNB (3.3 mM in 0.1 M PBS, pH = 8.0) were added sequentially, 20 µL AChE solution (0.2 U/mL in 0.1 M PBS, pH = 8.0), 20 µL of different concentrations of the sample solution, shaken well, and incubated at 37 °C for 5 min. Then, 20 µL of substrate (5 mM in 0.1 M PBS, pH = 8.0) were added, shaken well, and incubated at 37 °C for 20 min. […] BChE inhibitory activity was assessed similarly using butyrylthiocholine iodide as the substrate. The sample solution was set to five concentration gradients and the experiment was repeated three times. […] Cholinesterase inhibitory effect (%)=[A0−(A1−A2)]/A0×100% where A0 is the absorbance of blank group; A1 is the absorbance of sample group; A2 is the absorbance of sample blank group.
Sequence of AChE from electric eel (O42275 24-633): as above
In general terms: Ellman's reagent forms a yellow product with free thiols.

Another assay concerns the target BChE from equine serum (Equus caballus, UniProt P81908). Nature of the assay: biochemical. To be noted: equine serum BChE, Ellman method, mean ± SD (n = 3); read-out: IC50 value BuChE inhibitory activity. It is filed as biochemical. The protocol:
as §2

In general, IC50 refers to the concentration that gives 50% inhibition.

The structures appear in SMILES notation.

Sequence of BChE from equine serum (P81908 whole entry): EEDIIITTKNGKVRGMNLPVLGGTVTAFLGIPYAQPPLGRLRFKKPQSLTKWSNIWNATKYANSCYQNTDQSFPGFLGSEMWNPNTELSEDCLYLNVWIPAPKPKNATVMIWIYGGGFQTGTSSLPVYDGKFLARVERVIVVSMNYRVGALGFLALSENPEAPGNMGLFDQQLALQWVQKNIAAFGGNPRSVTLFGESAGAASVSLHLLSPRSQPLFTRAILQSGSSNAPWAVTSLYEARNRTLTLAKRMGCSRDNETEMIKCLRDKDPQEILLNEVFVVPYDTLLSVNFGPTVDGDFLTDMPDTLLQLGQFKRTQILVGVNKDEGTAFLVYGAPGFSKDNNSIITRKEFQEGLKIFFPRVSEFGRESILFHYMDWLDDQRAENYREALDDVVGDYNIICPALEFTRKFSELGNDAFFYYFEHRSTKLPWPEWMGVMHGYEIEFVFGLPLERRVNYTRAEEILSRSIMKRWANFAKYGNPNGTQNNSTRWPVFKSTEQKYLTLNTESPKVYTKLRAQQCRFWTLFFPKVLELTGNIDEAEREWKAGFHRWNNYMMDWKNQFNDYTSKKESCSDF
Sequence of BuChE (P81908 whole entry): as above

On to `COc1cc2c(cc1O)C(c1ccc(OC)c(OC)c1)C(=O)O2` (stereo not drawn) [Compound 13, 5-Hydroxy-6-methoxy-3–(3′,4′-dimethoxyphenyl)-benzofuranone], for which the IC50 came out at 11.2 ± 0.72 µM at MAO-B and 5.33 ± 0.08 µM in assay [1]. The “inhibition mode against AChE” value on AChE is recorded as “reversible inhibition”. Moreover, the “inhibition mode against BuChE” value on BuChE is recorded as “reversible inhibition”.

For `COc1ccc2c(c1O)OC(=O)C2c1cc(OC)c(OC)c(OC)c1` (stereo not drawn) [Compound 22, 6-Methoxy-7-hydroxy-3–(3′,4′,5′-trimethoxyphenyl)-benzofuranone], the IC50 on AChE from electric eel was 2.03 ± 0.09 µM; at BChE from equine serum, more than 200 µM; at MAO-B, 30.3 ± 0.65 µM; in assay [1] it was 6.44 ± 0.12 µM.

For `COc1cc2c(cc1O)C(c1cc(OC)c(OC)c(OC)c1)C(=O)O2` (stereo not drawn) [Compound 23, 5-Hydroxy-6-methoxy-3–(3′,4′,5′-trimethoxyphenyl)-benzofuranone], the IC50 at AChE from electric eel is 26 ± 1.26 µM; on BChE from equine serum, more than 200 µM; on MAO-B, 43.9 ± 1.26 µM; in assay [1], 11.9 ± 0.16 µM.
